# pIC50: −log10 of the molar value.
# How the values were obtained:
# [1] = biological target: T1, human PDHK1 (hPDHK1) (Homo sapiens, UniProt Q15118); experiment: Inhibitory action of PDHK1 activity in vitro (residual PDH activity after kinase reaction); format: biochemical; details: PDH/hPDHK1 complex, PDHK reaction 45 min at room temperature
# T1 construct: made in house; host or cells: Escherichia coli BL21(DE3), pET17b vector
# Experimental: (§1) The inhibitory action of PDHK activity was assessed indirectly by measuring the residual PDH activity after kinase reaction in the presence of a test compound.
# In the case of human PDHK1 (hPDHK1, Genbank Accession No. L42450.1), a 1.3 kbp fragment encoding this protein was isolated from human liver cDNA by polymerase chain reaction (PCR). Modified hPDHK1 cDNA wherein FLAG-Tag sequence was added to the N terminus was prepared by PCR and cloned into a vector (pET17b-Novagen). The recombinant construct was transformed into Escherichia coli (DH5α-TOYOB0). The recombinant clones were identified, and plasmid DNA was isolated and subjected to the DNA sequence analysis. One clone which had the expected nucleic acid sequence was selected for expression work. […]
# Then, 10 μL of substrates (5 mmol/L sodium pyruvate, 5 mmol/L Coenzyme A, 12 mmol/L NAD, 5 mmol/L thiamin pyrophosphate, diluted with buffer) were added. The mixture was incubated at room temperature for 90 min, and the residual PDH activity was measured.
# The absorbance at 340 nm before and after PDH reaction was measured using a microplate reader to detect NADH produced by the PDH reaction. The hPDHK1 inhibition rate (%) of the test compound was calculated from the formula [{(PDH activity of the test compound−PDH activity of control)/PDH activity of blank−PDH activity of control)}×100]. […]
# [2] = biological target: T2, human PDHK2 (hPDHK2) (Homo sapiens, UniProt Q15119); experiment: Inhibitory action of PDHK2 activity in vitro (residual PDH activity after kinase reaction); format: biochemical; details: PDH/hPDHK2 complex, PDHK reaction 45 min at room temperature
# T2 construct: made in house; host or cells: Escherichia coli BL21(DE3), pET17b vector
# Experimental: as §1
# The recombinant construct was transformed into Escherichia coli (DB5α-TOYOBO). The recombinant clones were identified, and plasmid DNA was isolated and subjected to the DNA sequence analysis. One clone which had the expected nucleic acid sequence was selected for expression work.
# For expression of hPDHK2 activity, Escherichia coli strain BL21(DE3) cells (Novagen) were transformed with the pET17b vector containing modified hPDHK2 cDNA. The Escherichia coli were grown to an optical density 0.6 ([…]) at 30° C. Protein expression was induced by the addition of 500 μmol/L isopropyl-β-thiogalactopyranoside. […]
# 0.05 U/mL PDH and 0.8 μg/mL hPDHK2 were mixed in a buffer (50 mmol/L 3-morpholinopropanesulfonic acid (pH 7.0), 20 mmol/L dipotassium hydrogen phosphate, 60 mmol/L potassium chloride, 2 mmol/L magnesium chloride, 0.4 mmol/L EDTA, and 0.2% Pluronic F-68, 2 mmol/L dithiothreitol), and the mixture was incubated at 4° C. overnight to obtain a PDH/hPDHK2 complex. […] The mixture was incubated at room temperature for 90 min, and the residual PDH activity was measured. The absorbance at 340 nm before and after PDH reaction was measured using a microplate reader to detect NADH produced by the PDH reaction. […]
# [3] = Water adsorption and desorption test; format: physicochemical; details: for hygroscopicity: conclusion of the water adsorption and desorption test; for hygroscopicity / moisture absorption under relative humidity 95%: without pre-drying
# Experimental: Water adsorption and desorption test was performed using a water equilibrium measuring apparatus (SGA-100, manufactured by VTI).
# A water adsorption and desorption test was performed by the following method.
# Method 1 (without Pre-Drying):
# Form I crystal (about 10 mg) was weighed in a quartz cell, and a weight change ratio was measured when it reached equilibrium at 25° C. and each relative humidity, by using a water equilibrium measuring apparatus (SGA-100, manufactured by VTI).
# Test temperature: 25° C. Equilibrating conditions: weight change ratio was not more than 0.03% in 5 min Maximum equilibrating time: 180 min Change of relative humidity: increased from 5% to 95% at 5% intervals, and decreased from 95% to 5% at 5% intervals. Method 2 (with Pre-Drying):
# Form I crystal (about 10 mg) was weighed in a quartz cell, dried under a dried nitrogen stream at 60° C., and a weight change ratio was measured when it reached equilibrium at 25° C. and each relative humidity, by using a water equilibrium measuring apparatus (SGA-100, manufactured by VTI).
# Test temperature: 25° C. Equilibrating conditions: weight change ratio was not more than 0.03% in 5 min Maximum equilibrating time: 180 min Change of relative humidity: increased from 5% to 95% at 5% intervals, and decreased from 95% to 5% at 5% intervals.
# In the water adsorption and desorption test, the measurement was performed under two conditions of “with pre-drying (drying before test)” and “without pre-drying (drying before test)”, wherein humidification and drying were repeated once. […] Therefore, it was assumed that pre-drying completely evaporated crystal water.
# [4] = Water adsorption and desorption test; format: physicochemical; details: for weight decrease on pre-drying: pre-dried under a dried nitrogen stream, 60° C.; for weight increase by humidification after drying: with pre-drying, humidification up to relative humidity 10%, 25° C.
# T1 sequence (Q15118 29-436): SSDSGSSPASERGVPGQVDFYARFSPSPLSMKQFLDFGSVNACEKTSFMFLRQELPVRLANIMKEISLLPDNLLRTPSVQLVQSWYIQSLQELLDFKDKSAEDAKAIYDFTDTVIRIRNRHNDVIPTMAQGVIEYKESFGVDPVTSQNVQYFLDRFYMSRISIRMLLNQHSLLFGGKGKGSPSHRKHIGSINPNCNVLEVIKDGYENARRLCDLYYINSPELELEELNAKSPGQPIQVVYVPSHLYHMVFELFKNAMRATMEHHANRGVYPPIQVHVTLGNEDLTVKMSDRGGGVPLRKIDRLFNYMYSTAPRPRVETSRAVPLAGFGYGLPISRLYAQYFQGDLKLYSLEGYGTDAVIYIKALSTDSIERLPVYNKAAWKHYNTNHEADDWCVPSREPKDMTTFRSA
SMILES,pIC50 [1],pIC50 [2],hygroscopicity [3],moisture absorption under relative humidity 95% ([3]; 25° C.),weight decrease on pre-drying [4],weight increase by humidification after drying [4],"weight decrease on pre-drying ([3]; pre-dried under a dried nitrogen stream, 60° C.)","weight increase by humidification after drying ([3]; with pre-drying, humidification up to relative humidity 50%, 25° C.)"
"CC(CO)(CO)n1cc(-c2cc(F)cc3c2-c2ccccc2[C@]3(O)C(F)(F)F)cn1 [Form I crystal of compound (Ah), 0.5 hydrate of 2-{4-[(9R)-2-fluoro-9-hydroxy-9-(trifluoromethyl)-9H-fluoren-4-yl]-pyrazol-1-yl}-2-methyl-propane-1,3-diol]",7.59,7.85,does not have hygroscopicity,remarkable moisture absorption was not found,2.15%,2.44%,,
"Cc1cc(-c2cnn(C(CO)(CO)CO)c2)c2c(c1)[C@@](O)(C(F)(F)F)c1ccccc1-2 [Form IVb crystal of compound (Bh), 2 hydrate of 2-hydroxymethyl-2-{4-[(9R)-9-hydroxy-2-methyl-9-(trifluoromethyl)-9H-fluoren-4-yl]-pyrazol-1-yl}-propane-1,3-diol]",,7.70,does not have hygroscopicity,remarkable moisture absorption was not found,,,7.75%,7.93%
"CC(CO)(CO)n1cc(-c2cc(F)cc3c2-c2ccccc2[C@]3(O)C(F)(F)F)cn1 [Form V crystal of compound (Ah), 0.5 hydrate of 2-{4-[(9R)-2-fluoro-9-hydroxy-9-(trifluoromethyl)-9H-fluoren-4-yl]-pyrazol-1-yl}-2-methyl-propane-1,3-diol]",,,does not have hygroscopicity,remarkable moisture absorption was not found,2.36%,2.46%,,
